The compounds below were run against T1, human B1 receptor (Homo sapiens, UniProt P46663) (assay: Calcium flux assay (FLIPR) with recombinant CHO-K1 cells expressing human B1 receptor). Details: absence of 0.1% BSA in assay buffer, read-out: hB1 free IC50.
T1 construct: host or cells: CHO-K1
T1 sequence (P46663 1-353): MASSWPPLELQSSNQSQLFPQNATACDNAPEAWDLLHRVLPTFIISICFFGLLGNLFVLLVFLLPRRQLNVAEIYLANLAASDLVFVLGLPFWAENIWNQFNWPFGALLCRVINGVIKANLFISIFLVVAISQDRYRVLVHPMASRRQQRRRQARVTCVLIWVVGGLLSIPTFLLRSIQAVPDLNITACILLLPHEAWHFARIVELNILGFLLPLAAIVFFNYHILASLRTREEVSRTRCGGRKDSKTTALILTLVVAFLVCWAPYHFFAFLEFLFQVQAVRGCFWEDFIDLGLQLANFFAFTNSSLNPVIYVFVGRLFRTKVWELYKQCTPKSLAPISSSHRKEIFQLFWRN
Format: cell-based
Method: The potency to inhibit the Bradykinin B1 receptors was determined for the example compounds of this invention in a cell-based fluorescent calcium-mobilisation assay. The assay measures the ability of example compounds to inhibit Bradykinin B1 receptor agonist-induced increase of intracellular free Ca^2+ in the cell line expressing B1 receptor. Specifically, calcium indicator-loaded cells are pre-incubated in the absence or presence of different concentrations of example compounds followed by the stimulation with a selective B1 receptor agonist peptide. The change of the intracellular Ca^2+ concentration is monitored with a fluorescent plate reader FLIPR (Molecular Devices).
Calcium Flux Assays (FLIPR) with Cells Expressing Bradykinin B1 Receptor Calcium Flux Assay (FLIPR) with Recombinant Cells for Bradykinin B1 Receptor Antagonist, Either in the Presence (hB1 IC50) or Absence (hB1 free IC50) of 0.1% Bovine Serum Albumin (BSA) in Assay Buffer
CHO-K1 cell line expressing human B1 receptor was purchased from Euroscreen (Gosselies, Belgium, with reference name hB1-D1). The cells were grown in Nutrient Mixture Ham's F12 (Sigma) containing 10% Foetal bovine serum (Sigma) and 400 μg/mL G418 (Sigma), 5 μg/mL puromycin (Sigma).
For the calcium flux assay, 80% confluent cells were detached from the culture vessels with Versene (Gibco), and seeded into 384-well plates (Cell binding Surface; Corning, N.Y.; #3683) at a density of 15,000 cells per well. Cells were seeded in a volume of 50 μL in medium without antibiotics and incubated overnight in a humidified atmosphere with 5% CO2 at 37° C. […] The calcium indicator loaded cells were incubated at 37° C. for 2 hrs. Extracellular dye was then removed and each well was filled with 45 μL of assay buffer. Cell plates were kept in dark until used. Example compounds were assayed at 8 concentrations in triplicate. Serial 10-fold dilutions in 100% DMSO were made at a 100-times higher concentration than the final concentration, and then diluted 1:10 in assay buffer. 5 μL of each diluted compound was added to the well of cell plates (yielding final concentration with 1% DMSO), and incubated for 30 min at 28° C. before the addition of B1 receptor agonist on the FLIPR instrument.
Agonist plates contained the agonist Lys-(Des-Arg)-Bradykinin (Bachem, Brackley) at 3.5×EC90 in assay buffer with 1% DMSO. The addition of agonist 20 μl per well to the assay plate was carried out on the FLIPR instrument while continuously monitoring Ca^2+-dependent fluorescence at 538 nm. A peptide antagonist Lys-(Des-Arg-Leu)-Bradykinin (Bachem, Brackley) at 20 μM was used to determine the full inhibition as control.
Peak fluorescence was used to determine the response to agonist obtained at each concentration of example compound by the following equation:
% Response=100*(RFU(example compound)−RFU(control)/(RFU(DMSO)−RFU(control)
Control=full inhibition by the peptide antagonist Lys-(Des-Arg-Leu)-Bradykinin at 20 μM
The response values were plotted against the logarithm of the compound concentrations. The compounds were tested in triplicates per plate and mean values were plotted in Excel XLfit to determine IC50 values, percentage of maximal inhibition and the Hill slopes.

Row | SMILES | IC50 [nM]
1 | O=C(Nc1ccc(-n2cc(C(F)(F)F)cn2)c(-c2nnn[nH]2)c1)C1CC1c1ccccc1 (racemic) [Example 43, 2-Phenyl-N-{3-(1H-tetrazol-5-yl)-4-[4-(trifluoromethyl)-1H-pyrazol-1-yl]phenyl}cyclopro-panecarboxamide] | 2210
2 | CC(C)(C)c1cnn(-c2ccc(NC(=O)C3CC3c3ccc(Cl)cc3)cc2-c2nnn[nH]2)c1 (racemic) [Example 44, N-[4-(4-tert-butyl-1H-pyrazol-1-yl)-3-(1H-tetrazol-5-yl)phenyl]-2-(4-chlorophenyl)cyclopro-panecarboxamide] | 26
3 | CC(C)(C)c1ccn(-c2ccc(NC(=O)C3CC3c3ccc(Cl)cc3)cc2-c2nnn[nH]2)n1 (racemic) [Example 45, N-[4-(3-tert-butyl-1H-pyrazol-1-yl)-3-(1H-tetrazol-5-yl)phenyl]-2-(4-chlorophenyl)cyclopro-panecarboxamide] | 463
4 | O=C(Nc1ccc(-n2cc(C(F)(F)F)cn2)c(-c2nnn[nH]2)c1)C1CC1c1ccc(Cl)cc1 (racemic) [Example 46, 2-(4-Chlorophenyl)-N-{3-(1H-tetrazol-5-yl)-4-[4-(trifluoromethyl)-1H-pyrazol-1-yl]phenyl}cyclopropane-carboxamide] | 1180
5 | O=C(Nc1ccc(-n2ccc(C(F)(F)F)n2)c(-c2nnn[nH]2)c1)C1CC1c1ccc(Cl)cc1 (racemic) [Example 47, 2-(4-Chlorophenyl)-N-{3-(1H-tetrazol-5-yl)-4-[3-(trifluoromethyl)-1H-pyrazol-1-yl]phenyl}cyclopropane-carboxamide] | 1220
6 | COc1ccc(-c2cc(F)c(NC(=O)C3CC3c3ccc(Cl)cc3)cc2-c2nnn[nH]2)cc1C (racemic) [Example 57, 2-(4-chlorophenyl)-N-[5-fluoro-4′-methoxy-3′-methyl-2-(1H-tetrazol-5-yl)biphenyl-4-yl]cyclo-propanecarboxamide] | 24
7 | O=C(Nc1cc(F)c(-c2ccc(C(F)(F)F)nc2)c(-c2nnn[nH]2)c1)C1CC1c1ccc(Cl)cc1 (racemic) [Example 62, 2-(4-chlorophenyl)-N-{3-fluoro-5-(1H-tetrazol-5-yl)-4-[6-(trifluoromethyl)pyridin-3-yl]phenyl}cyclopro-panecarboxamide] | 947

Same assay, conditions: presence of 0.1% BSA in assay buffer, read-out: hB1 IC50

Row | SMILES | IC50 [nM]
8 | COCc1ccc(-c2ccc(NC(=O)C3CC3C3CCCCC3)cc2-c2nnn[nH]2)cc1C (racemic) [Example 33, 2-cyclohexyl-N-[4′-(methoxymethyl)-3′-methyl-2-(1H-tetrazol-5-yl)biphenyl-4-yl]cyclo-propanecarboxamide] | 28
9 | COc1ccc(-c2ccc(NC(=O)C3CC3c3ccc(Cl)cc3)cc2-c2nnn[nH]2)cc1C (racemic) [Example 34, 2-(4-chlorophenyl)-N-[4′-methoxy-3′-methyl-2-(1H-tetrazol-5-yl)biphenyl-4-yl]cyclopropanecarbox-amide] | 232
10 | COc1ccc(-c2ccc(NC(=O)C3CC3c3ccc(C)cc3)cc2-c2nnn[nH]2)cc1 (racemic) [Example 36, N-[4′-methoxy-2-(1H-tetrazol-5-yl)biphenyl-4-yl]-2-(4-methylphenyl)cyclopro-panecarboxamide] | 662
11 | COc1ccc(-c2ccc(NC(=O)C3CC3C3CCCCC3)cc2-c2nnn[nH]2)cc1 (racemic) [Example 37, 2-cyclohexyl-N-[4′-methoxy-2-(1H-tetrazol-5-yl)biphenyl-4-yl]cyclopropanecarbox-amide] | 469
12 | COCc1ccc(-c2ccc(NC(=O)C3CC3c3ccc(Cl)cc3)cc2-c2nnn[nH]2)cc1 (racemic) [Example 38, 2-(4-chlorophenyl)-N-[4′-(methoxymethyl)-2-(1H-tetrazol-5-yl)biphenyl-4-yl]cyclopropanecarbox-amide] | 1470
13 | COc1ccc(-c2ccc(NC(=O)C3CC3c3ccc(Cl)cc3)cc2-c2nnn[nH]2)cc1Cl (racemic) [Example 39, N-[3′-chloro-4′-methoxy-2-(1H-tetrazol-5-yl)biphenyl-4-yl]-2-(4-chlorophenyl)cyclopro-panecarboxamide] | 1230
14 | COc1ccc(-c2ccc(NC(=O)C3CC3C3CCCCC3)cc2-c2nnn[nH]2)cc1Cl (racemic) [Example 40, N-[3′-chloro-4′-methoxy-2-(1H-tetrazol-5-yl)biphenyl-4-yl]-2-cyclohexylcyclopropane-carboxamide] | 1030
15 | O=C(Nc1ccc(-c2ccc(OC(F)(F)F)cc2)c(-c2nnn[nH]2)c1)C1CC1c1ccc(Cl)cc1 (racemic) [Example 41, 2-(4-chlorophenyl)-N-[2-(1H-tetrazol-5-yl)-4′-(trifluoro-methoxy)biphenyl-4-yl]cyclopropanecarbox-amide] | 33
16 | O=C(Nc1ccc(-c2ccc(OC(F)(F)F)cc2)c(-c2nnn[nH]2)c1)C1CC1C1CCCCC1 (racemic) [Example 42, 2-cyclohexyl-N-[2-(1H-tetrazol-5-yl)-4′-(trifluoro-methoxy)biphenyl-4-yl]cyclopropanecarbox-amide] | 31
17 | COc1ccc(-c2cc(F)c(NC(=O)C3CC3c3cccc(C)c3)cc2-c2nnn[nH]2)cc1OC (racemic) [Example 53, N-[5-Fluoro-3′,4′-dimethoxy-2-(1H-tetrazol-5-yl)biphenyl-4-yl]-2-(3-methylphenyl)cyclopro-panecarboxamide] | 16
18 | COc1ccc(-c2cc(F)c(NC(=O)C3CC3c3ccc(Cl)cc3)cc2-c2nnn[nH]2)cc1OC (racemic) [Example 54, 2-(4-Chlorophenyl)-N-[5-fluoro-3′,4′-dimethoxy-2-(1H-tetrazol-5-yl)biphenyl-4-yl]cyclopro-panecarboxamide] | 26
19 | COc1ccc(-c2cc(F)c(NC(=O)C3CC3c3cccc(C)c3)cc2-c2nnn[nH]2)cc1C (racemic) [Example 56, N-[5-Fluoro-4′-methoxy-3′-methyl-2-(1H-tetrazol-5-yl)biphenyl-4-yl]-2-(3-methylphenyl)cyclopro-panecarboxamide] | 19
20 | COc1ccc(-c2cc(F)c(NC(=O)C3CC3c3ccc(Cl)cc3)cc2-c2nnn[nH]2)cc1C (racemic) [Example 57, 2-(4-chlorophenyl)-N-[5-fluoro-4′-methoxy-3′-methyl-2-(1H-tetrazol-5-yl)biphenyl-4-yl]cyclo-propanecarboxamide] | 124
21 | COc1ccc(-c2cc(F)c(NC(=O)C3CC3c3ccc(Cl)cc3)cc2-c2nnn[nH]2)cc1 (racemic) [Example 58, 2-(4-Chlorophenyl)-N-[5-fluoro-4′-methoxy-2-(1H-tetrazol-5-yl)biphenyl-4-yl]cyclopropanecarbox-amide] | 134
22 | COc1ccc(-c2c(F)cc(NC(=O)C3CC3c3cccc(C)c3)cc2-c2nnn[nH]2)cc1OC (racemic) [Example 59, N-[2-Fluoro-3′,4′-dimethoxy-6-(1H-tetrazol-5-yl)biphenyl-4-yl]-2-(3-methylphenyl)cyclopro-panecarboxamide] | 83
23 | COc1ccc(-c2c(F)cc(NC(=O)C3CC3C3CCCCC3)cc2-c2nnn[nH]2)cc1OC (racemic) [Example 60, 2-Cyclohexyl-N-[2-fluoro-3′,4′-dimethoxy-6-(1H-tetrazol-5-yl)biphenyl-4-yl]cyclopro-panecarboxamide] | 177
24 | CCOc1ccc(-c2cc(C)c(NC(=O)C3CC3c3cccc(C)c3)cc2-c2nnn[nH]2)cn1 (racemic) [Example 63, N-[4-(6-Ethoxypyridin-3-yl)-2-methyl-5-(1H-tetrazol-5-yl)phenyl]-2-(3-methylphenyl)cyclo-propanecarboxamide] | 24
25 | CCOc1ccc(-c2cc(C)c(NC(=O)C3CC3C3CCCCC3)cc2-c2nnn[nH]2)cn1 (racemic) [Example 65, 2-Cyclohexyl-N-[4-(6-ethoxypyridin-3-yl)-2-methyl-5-(1H-tetrazol-5-yl)phenyl]cyclopropane-carboxamide] | 247
